In patent US7875289B2, “Compositions of less immunogenic and long-circulating protein-lipid complexes” (The Research Foundation of State University of New York, priority 2006, dated 2011) one finds Kd data, which are given here for 2 compounds.

The target of the assay is T1, BDDrFVIII (Homo sapiens, UniProt P00451).
T1 construct: Deletion of the B domain leads to a less heterogenic, genetically engineered rFVIII that corresponds to the shortest form of pdFVIII (e.g. ˜170 KDa)
T1 sequence (P00451 with tags, fused parts or gaps DEL765-1658): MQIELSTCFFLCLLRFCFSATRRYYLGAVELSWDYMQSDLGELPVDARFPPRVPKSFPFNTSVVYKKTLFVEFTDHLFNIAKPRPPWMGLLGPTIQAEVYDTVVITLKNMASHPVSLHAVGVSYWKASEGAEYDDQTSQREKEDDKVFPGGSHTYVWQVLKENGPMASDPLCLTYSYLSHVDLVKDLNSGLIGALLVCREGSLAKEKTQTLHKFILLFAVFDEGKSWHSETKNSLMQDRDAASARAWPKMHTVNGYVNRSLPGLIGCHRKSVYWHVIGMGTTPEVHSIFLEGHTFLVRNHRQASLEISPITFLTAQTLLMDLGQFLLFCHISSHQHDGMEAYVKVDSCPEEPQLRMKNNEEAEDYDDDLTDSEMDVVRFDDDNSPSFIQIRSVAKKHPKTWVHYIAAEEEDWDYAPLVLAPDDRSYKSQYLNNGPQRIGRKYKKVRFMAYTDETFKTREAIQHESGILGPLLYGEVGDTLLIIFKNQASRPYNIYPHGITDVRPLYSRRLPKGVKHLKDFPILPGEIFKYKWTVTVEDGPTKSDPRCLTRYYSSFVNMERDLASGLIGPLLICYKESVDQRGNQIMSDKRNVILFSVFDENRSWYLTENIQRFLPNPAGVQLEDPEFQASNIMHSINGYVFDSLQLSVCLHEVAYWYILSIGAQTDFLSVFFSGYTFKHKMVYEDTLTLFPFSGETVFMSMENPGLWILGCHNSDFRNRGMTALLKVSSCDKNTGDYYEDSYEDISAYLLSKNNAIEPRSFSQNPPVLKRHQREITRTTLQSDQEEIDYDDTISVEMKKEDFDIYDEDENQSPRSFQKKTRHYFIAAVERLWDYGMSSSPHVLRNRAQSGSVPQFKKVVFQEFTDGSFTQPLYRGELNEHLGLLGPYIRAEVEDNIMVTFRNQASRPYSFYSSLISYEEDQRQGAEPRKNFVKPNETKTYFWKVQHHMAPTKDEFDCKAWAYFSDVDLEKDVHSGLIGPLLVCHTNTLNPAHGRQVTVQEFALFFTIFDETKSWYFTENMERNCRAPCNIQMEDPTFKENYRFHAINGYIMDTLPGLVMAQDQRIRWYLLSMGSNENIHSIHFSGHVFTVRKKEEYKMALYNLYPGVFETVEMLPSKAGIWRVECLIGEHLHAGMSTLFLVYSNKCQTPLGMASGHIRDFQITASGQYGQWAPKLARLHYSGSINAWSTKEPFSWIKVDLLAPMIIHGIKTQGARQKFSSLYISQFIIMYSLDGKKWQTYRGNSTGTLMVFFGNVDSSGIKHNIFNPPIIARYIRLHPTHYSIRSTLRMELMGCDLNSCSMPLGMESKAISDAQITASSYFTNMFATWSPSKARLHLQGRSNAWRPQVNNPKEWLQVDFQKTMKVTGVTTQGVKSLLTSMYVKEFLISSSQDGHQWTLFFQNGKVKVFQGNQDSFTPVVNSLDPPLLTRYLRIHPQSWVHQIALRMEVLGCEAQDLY
The assay can be described thus: Dissociation constant of lipid head group - BDDrFVIII interaction by intrinsic fluorescence. Format: binding. The settings on record: excitation 285 nm, emission 330 nm, protein 3 ug/mL. The procedure: This examples describes the preparation of PS containing liposomes that were used for comparison with the PI containing lipidic structures in other Examples. BDDrFVIII was mixed with solution containing different concentration of O-phospho-L-serine (OPLS) or phosphocholine in such a way that the final protein concentration is maintained constant at 3 ug/mL. The OPLS or phosphocholine concentration vared between 0 and 100 uM. Each mixture is incubated for 5 minutes before subjecting to further analysis.
The intrinsic fluorescent of BDDrFVIII in the presence of increasing concentration of phospholipids head group was measured with a Quanta Master PTI instrument. The excitation was set to 285 nm and the emission was recorded at peak maximum (e.g. 330 nm). The normalized fluorescence (F/F0) data was plotted vs. [lipid] and used for the determination of the dissociation constant for lipid head group—BDDrFVIII interaction.

Take `C[N+](C)(C)CCOP(=O)([O-])O` [phophocholine, phosphocholine]: the Kd (as a rule, the constant that tells how readily two partners part at equilibrium) was 24.2 µM. This lies in the double-digit micromolar range.
Regarding `N[C@@H](COP(=O)(O)O)C(=O)O` [OPLS, O-phospho-L-serine], the equilibrium dissociation constant (Kd) was 70.2 µM.
